Biological target: T1, IL-17A/A (Homo sapiens, UniProt Q16552)
T1 construct: purchased Genscript Z03228
T1 sequence (Q16552 24-155): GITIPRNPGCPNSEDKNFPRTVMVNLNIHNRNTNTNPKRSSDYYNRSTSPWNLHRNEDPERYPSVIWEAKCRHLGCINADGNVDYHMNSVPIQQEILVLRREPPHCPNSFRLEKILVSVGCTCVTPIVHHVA
Test: IL-17A/A HEK-Blue cell assay
Type: cell-based
Details: HEK-Blue IL-17A reporter cell line (HEK 293), IL-17A/A stimulation, 20 hours incubation, SEAP read at A630
Outline: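 HEK293 reporter cells expressing IL-17RA, IL-17RC and Act1 were given titrated compound (top final 10, 1 or 0.3 uM; 0.1% DMSO) right before IL-17A/A and incubated 20 hours. NFκB-driven SEAP in the media was read at A630 with Quanti-Blue, and IC50 came from a 4-parameter nonlinear fit.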

| SMILES | IC50 [nM] |
| --- | --- |
| CCc1nonc1C(=O)N[C@H](c1cn2nc(C[C@H]3CCCNC3=O)ccc2n1)C1CCC(F)(F)CC1 [Compound 37, N—((S)-(4,4-difluorocyclohexyl)(6-(((R)-2-oxopiperidin-3-yl)methyl)imidazo[1,2-b]pyridazin-2-yl)methyl)-4-ethyl-1,2,5-oxadiazole-3-carboxamide] | > 1000 |
| Cc1nonc1C(=O)N[C@H](c1cn2nc(C[C@H]3CCCNC3=O)ccc2n1)C1CCC(F)(F)CC1 [Compound 38, N—((S)-(4,4-difluorocyclohexyl)(6-(((R)-2-oxopiperidin-3-yl)methyl)imidazo[1,2-b]pyridazin-2-yl)methyl)-4-methyl-1,2,5-oxadiazole-3-carboxamide] | > 1000 |
| CCn1nccc1C(=O)N[C@H](c1cn2nc(C[C@@H]3CCCNC3=O)ccc2n1)[C@H]1CC[C@H](C)CC1 [Compound 39, 1-ethyl-N—((S)-((1r,4S)-4-methylcyclohexyl)(6-(((S)-2-oxopiperidin-3-yl)methyl)imidazo[1,2-b]pyridazin-2-yl)methyl)-1H-pyrazole-5-carboxamide] | 100 to 1000 |
| CCn1nccc1C(=O)N[C@H](c1cn2nc(CC3CC(C)(C)CNC3=O)ccc2n1)[C@H]1CC[C@H](C)CC1 (stereo partly drawn) [Compound 58, N-((1S)-(6-((5,5-dimethyl-2-oxopiperidin-3-yl)methyl)imidazo[1,2-b]pyridazin-2-yl)((1r,4S)-4-methylcyclohexyl)methyl)-1-ethyl-1H-pyrazole-5-carboxamide] | > 1000 |
| CC[C@@H]1CC(Cc2ccc3nc([C@@H](NC(=O)c4ccnn4CC)[C@H]4CC[C@H](C)CC4)cn3n2)C(=O)N1 (stereo partly drawn) [Compound 59, 1-ethyl-N-((1S)-(6-(((5R)-5-ethyl-2-oxopyrrolidin-3-yl)methyl)imidazo[1,2-b]pyridazin-2-yl)((1r,4S)-4-methylcyclohexyl)methyl)-1H-pyrazole-5-carboxamide] | 100 to 1000 |
| CCn1nccc1C(=O)N[C@H](c1cn2nc(CC3CC4(CC4)NC3=O)ccc2n1)C(C1CC1)C1CC1 (stereo partly drawn) [Compound 60, N-((1S)-2,2-dicyclopropyl-1-(6-((5-oxo-4-azaspiro[2.4]heptan-6-yl)methyl)imidazo[1,2-b]pyridazin-2-yl)ethyl)-1-ethyl-1H-pyrazole-5-carboxamide] | 100 to 1000 |
| CCn1nccc1C(=O)N[C@H](c1cn2nc(CC3C(=O)NC4CC3C4)ccc2n1)[C@H]1CC[C@H](C)CC1 (stereo partly drawn) [Compound 61, 1-ethyl-N-((1S)-((1r,4S)-4-methylcyclohexyl)(6-((3-oxo-2-azabicyclo[3.1.1]heptan-4-yl)methyl)imidazo[1,2-b]pyridazin-2-yl)methyl)-1H-pyrazole-5-carboxamide] | 100 to 1000 |
| CCn1nccc1C(=O)N[C@H](c1cn2nc(CC3CC(F)(F)CNC3=O)c(NC(=O)OC)cc2n1)C1CCC(F)(F)CC1 (stereo partly drawn) [Compound 72, methyl (6-((5,5-difluoro-2-oxopiperidin-3-yl)methyl)-2-((S)-(4,4-difluorocyclohexyl)(1-ethyl-1H-pyrazole-5-carboxamido)methyl)imidazo[1,2-b]pyridazin-7-yl)carbamate] | 100 to 1000 |
| CCn1nccc1C(=O)N[C@H](c1cn2nc(CC3CC(F)(F)CNC3=O)c(OC)cc2n1)C1CCC(F)(F)CC1 (stereo partly drawn) [Compound 75, N-((1S)-(6-((5,5-difluoro-2-oxopiperidin-3-yl)methyl)-7-methoxyimidazo[1,2-b]pyridazin-2-yl)(4,4-difluorocyclohexyl)methyl)-1-ethyl-1H-pyrazole-5-carboxamide] | > 1000 |
| CCn1nccc1C(=O)N[C@H](c1cn2nc(C[C@H]3C[C@@H](C(F)(F)F)CNC3=O)c(C#N)cc2n1)C1CCC(F)(F)CC1 [Compound 81] | 100 to 1000 |
| CCn1nccc1C(=O)N[C@H](c1cn2nc(CC3C[C@@H](C(F)(F)F)CNC3=O)c(COC)cc2n1)C1CCC(F)(F)CC1 (stereo partly drawn) [Compound 84, N-((1S)-(4,4-difluorocyclohexyl)(7-(methoxymethyl)-6-(((5R)-2-oxo-5-(trifluoromethyl)piperidin-3-yl)methyl)imidazo[1,2-b]pyridazin-2-yl)methyl)-1-ethyl-1H-pyrazole-5-carboxamide] | 100 to 1000 |
| CCn1nccc1C(=O)N[C@H](c1cn2nc(CC3C[C@@H](C(F)(F)F)CNC3=O)ccc2n1)C1CCC(F)(F)CC1 (stereo partly drawn) [Compound 95, N-((1S)-(4,4-difluorocyclohexyl)(6-(((5R)-2-oxo-5-(trifluoromethyl)piperidin-3-yl)methyl)imidazo[1,2-b]pyridazin-2-yl)methyl)-1-ethyl-1H-pyrazole-5-carboxamide] | 100 to 1000 |
| CCn1nccc1C(=O)N[C@H](c1cn2nc(CC3C[C@@H](C(F)(F)F)CNC3=O)ccc2n1)C(C1CC1)C1CC1 (stereo partly drawn) [Compound 96, N-((1S)-2,2-dicyclopropyl-1-(6-(((5R)-2-oxo-5-(trifluoromethyl)piperidin-3-yl)methyl)imidazo[1,2-b]pyridazin-2-yl)ethyl)-1-ethyl-1H-pyrazole-5-carboxamide] | 100 to 1000 |
| CCn1nccc1C(=O)N[C@H](c1cn2nc(CC3C[C@@H](C(F)(F)F)CNC3=O)ccc2n1)[C@H]1CC[C@H](C)CC1 (stereo partly drawn) [Compound 97, 1-ethyl-N-((1S)-((1R.4S)-4-methylcyclohexyl)(6-(((5R)-2-oxo-5-(trifluoromethyl)piperidin-3-yl)methyl)imidazo[1,2-b]pyridazin-2-yl)methyl)-1H-pyrazole-5-carboxamide] | 100 to 1000 |
| Cc1nonc1C(=O)N[C@H](c1cn2nc(CC3C[C@@H](C(F)(F)F)CNC3=O)ccc2n1)C1CCC(F)(F)CC1 (stereo partly drawn) [Compound 100, N-((1S)-(4,4-difluorocyclohexyl)(6-(((5R)-2-oxo-5-(trifluoromethyl)piperidin-3-yl)methyl)imidazo[1,2-b]pyridazin-2-yl)methyl)-4-methyl-1,2,5-oxadiazole-3-carboxamide] | 100 to 1000 |
| O=C(N[C@H](c1cn2nc(CC3C[C@@H](C(F)(F)F)CNC3=O)ccc2n1)C1CCC(F)(F)CC1)c1ccnn1CCF (stereo partly drawn) [Compound 101, N-((1S)-(4,4-difluorocyclohexyl)(6-(((5R)-2-oxo-5-(trifluoromethyl)piperidin-3-yl)methyl)imidazo[1,2-b]pyridazin-2-yl)methyl)-1-(2-fluoroethyl)-1H-pyrazole-5-carboxamide] | 100 to 1000 |
| CC(C)c1nocc1C(=O)N[C@H](c1cn2nc(CC3C[C@@H](C(F)(F)F)CNC3=O)ccc2n1)C1CCC(F)(F)CC1 (stereo partly drawn) [Compound 102, N-((1S)-(4,4-difluorocyclohexyl)(6-(((5R)-2-oxo-5-(trifluoromethyl)piperidin-3-yl)methyl)imidazo[1,2-b]pyridazin-2-yl)methyl)-3-isopropylisoxazole-4-carboxamide] | < 100 |
| Cc1conc1C(=O)N[C@H](c1cn2nc(CC3C[C@@H](C(F)(F)F)CNC3=O)ccc2n1)C1CCC(F)(F)CC1 (stereo partly drawn) [Compound 103, N-((1S)-(4,4-difluorocyclohexyl)(6-(((5R)-2-oxo-5-(trifluoromethyl)piperidin-3-yl)methyl)imidazo[1,2-b]pyridazin-2-yl)methyl)-4-methylisoxazole-3-carboxamide] | 100 to 1000 |
| O=C(N[C@H](c1cn2nc(CC3C[C@@H](C(F)(F)F)CNC3=O)ccc2n1)C1CCC(F)(F)CC1)c1nonc1C1CC1 (stereo partly drawn) [Compound 104, 4-cyclopropyl-N-((1S)-(4,4-difluorocyclohexyl)(6-(((5R)-2-oxo-5-(trifluoromethyl)piperidin-3-yl)methyl)imidazo[1,2-b]pyridazin-2-yl)methyl)-1,2,5-oxadiazole-3-carboxamide] | < 100 |
| O=C(N[C@H](c1cn2nc(CC3C[C@@H](C(F)(F)F)CNC3=O)ccc2n1)C1CCC(F)(F)CC1)c1ccnn1CC(F)(F)F (stereo partly drawn) [Compound 105, N-((1S)-(4,4-difluorocyclohexyl)(6-(((5R)-2-oxo-5-(trifluoromethyl)piperidin-3-yl)methyl)imidazo[1,2-b]pyridazin-2-yl)methyl)-1-(2,2,2-trifluoroethyl)-1H-pyrazole-5-carboxamide] | 100 to 1000 |
| O=C(N[C@H](c1cn2nc(CC3C[C@@H](C(F)(F)F)CNC3=O)ccc2n1)C1CCC(F)(F)CC1)c1ccnn1CC(F)F (stereo partly drawn) [Compound 106, N-((1S)-(4,4-difluorocyclohexyl)(6-(((5R)-2-oxo-5-(trifluoromethyl)piperidin-3-yl)methyl)imidazo[1,2-b]pyridazin-2-yl)methyl)-1-(2,2-difluoroethyl)-1H-pyrazole-5-carboxamide] | 100 to 1000 |
| CC(C)n1nncc1C(=O)N[C@H](c1cn2nc(CC3C[C@@H](C(F)(F)F)CNC3=O)ccc2n1)C1CCC(F)(F)CC1 (stereo partly drawn) [Compound 107, N-((1S)-(4,4-difluorocyclohexyl)(6-(((5R)-2-oxo-5-(trifluoromethyl)piperidin-3-yl)methyl)imidazo[1,2-b]pyridazin-2-yl)methyl)-1-isopropyl-1H-1,2,3-triazole-5-carboxamide] | 100 to 1000 |
| CCn1nncc1C(=O)N[C@H](c1cn2nc(CC3C[C@@H](C(F)(F)F)CNC3=O)ccc2n1)C1CCC(F)(F)CC1 (stereo partly drawn) [Compound 108, N-((1S)-(4,4-difluorocyclohexyl)(6-(((5R)-2-oxo-5-(trifluoromethyl)piperidin-3-yl)methyl)imidazo[1,2-b]pyridazin-2-yl)methyl)-1-ethyl-1H-1,2,3-triazole-5-carboxamide] | 100 to 1000 |
| O=C(N[C@H](c1cn2nc(CC3C[C@@H](C(F)(F)F)CNC3=O)ccc2n1)C1CCC(F)(F)CC1)c1cnnn1CCF (stereo partly drawn) [Compound 109, N-((1S)-(4,4-difluorocyclohexyl)(6-(((5R)-2-oxo-5-(trifluoromethyl)piperidin-3-yl)methyl)imidazo[1,2-b]pyridazin-2-yl)methyl)-1-(2-fluoroethyl)-1H-1,2,3-triazole-5-carboxamide] | 100 to 1000 |

From patent publication US20250346602A1, “LACTAM SUBSTITUTED IMIDAZOPYRIDAZINE IL-17A MODULATORS AND USES THEREOF” (DICE ALPHA, INC., priority 2022, published 2025)
